# Results as given in US9751881B2, “Inhibitors of the renal outer medullary potassium channel” (Merck Sharp & Dohme Corp., priority 2013, dated 2017).
# Target: hROMK (hKir1.1) (Homo sapiens (Human), UniProt P48048)
# Test: Thallium Flux Assay (ROMK channel functional thallium flux, FLIPR-Tetra)
# Type: cell-based
# Settings: HEK293 cells stably expressing hROMK (hKir1.1); unit not given in Table 4 (IC50 potencies less than 1 μM); read-out: ROMK TI IC50
# Procedure, shortened: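 HEK293 cells stably expressing hROMK, FluxOR dye-loaded 90 min, then compound 30 min at room temperature. Normalised to 3 μM reference ROMK inhibitor as % fluorescence change.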
# Sequence of hROMK (hKir1.1) (P48048 whole entry): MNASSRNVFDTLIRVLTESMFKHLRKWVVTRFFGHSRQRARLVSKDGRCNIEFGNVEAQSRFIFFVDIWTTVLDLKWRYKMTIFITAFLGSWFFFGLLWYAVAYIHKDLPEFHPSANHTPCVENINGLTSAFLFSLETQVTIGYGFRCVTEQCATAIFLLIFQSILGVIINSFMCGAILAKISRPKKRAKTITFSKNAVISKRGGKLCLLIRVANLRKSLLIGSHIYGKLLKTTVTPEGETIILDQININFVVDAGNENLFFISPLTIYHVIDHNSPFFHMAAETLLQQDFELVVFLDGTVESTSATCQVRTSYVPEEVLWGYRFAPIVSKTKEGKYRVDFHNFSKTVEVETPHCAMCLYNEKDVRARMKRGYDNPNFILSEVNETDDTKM
row,IC50 [nM],SMILES
1,135,Cc1c(C(O)CN2CCC3(CC2)CCN(c2nccnc2C#N)CC3)ccc2c1COC2=O (stereo not drawn) [Example 110]
2,9.62,Cc1c(C(O)CN2CCC3(CC2)CCN(c2cnc(C#N)cn2)CC3)ccc2c1COC2=O (stereo not drawn) [Example 111]
3,161,Cc1cc(C#N)c(N2CCC3(CCN(CC(O)c4ccc5c(c4C)COC5=O)CC3)CC2)nn1 (stereo not drawn) [Example 112]
4,473,Cc1c(C(O)CN2CCC3(CC2)CCN(c2ncc(C#N)cc2F)CC3)ccc2c1COC2=O (stereo not drawn) [Example 113]
5,136,Cc1nc(N2CCC3(CCN(CC(O)c4ccc5c(c4C)COC5=O)CC3)CC2)ccc1C#N (stereo not drawn) [Example 114]
6,286,"Cc1c([C@@H](O)CN2CCC3(CC2)CCN(c2ccnc(-c4ccoc4)n2)C3=O)ccc2c1COC2=O [Example 115, (R)-2-(2-(furan-3-yl)pyrimidin-4-yl)-8-(2-hydroxy-2-(4-methyl-1-oxo-1,3-dihydroisobenzofuran-5-yl)ethyl)-2,8-diazaspiro[4.5]decan-1-one]"
